The values that follow come from US20220411421A1, “4-AMINO-IMIDAZOQUINOLINE COMPOUNDS AND USE THEREOF” (Prime Reach Trading Limited, priority 2019, published 2022).

Common to all, as to format: cell-based
The target in assay [1] is T1, hTLR7 (Homo sapiens, UniProt Q9NYK1).
T1 construct: expressed in transfected cells; host or cells: HEK-Blue hTLR7 cells
T1 sequence (Q9NYK1 27-1049): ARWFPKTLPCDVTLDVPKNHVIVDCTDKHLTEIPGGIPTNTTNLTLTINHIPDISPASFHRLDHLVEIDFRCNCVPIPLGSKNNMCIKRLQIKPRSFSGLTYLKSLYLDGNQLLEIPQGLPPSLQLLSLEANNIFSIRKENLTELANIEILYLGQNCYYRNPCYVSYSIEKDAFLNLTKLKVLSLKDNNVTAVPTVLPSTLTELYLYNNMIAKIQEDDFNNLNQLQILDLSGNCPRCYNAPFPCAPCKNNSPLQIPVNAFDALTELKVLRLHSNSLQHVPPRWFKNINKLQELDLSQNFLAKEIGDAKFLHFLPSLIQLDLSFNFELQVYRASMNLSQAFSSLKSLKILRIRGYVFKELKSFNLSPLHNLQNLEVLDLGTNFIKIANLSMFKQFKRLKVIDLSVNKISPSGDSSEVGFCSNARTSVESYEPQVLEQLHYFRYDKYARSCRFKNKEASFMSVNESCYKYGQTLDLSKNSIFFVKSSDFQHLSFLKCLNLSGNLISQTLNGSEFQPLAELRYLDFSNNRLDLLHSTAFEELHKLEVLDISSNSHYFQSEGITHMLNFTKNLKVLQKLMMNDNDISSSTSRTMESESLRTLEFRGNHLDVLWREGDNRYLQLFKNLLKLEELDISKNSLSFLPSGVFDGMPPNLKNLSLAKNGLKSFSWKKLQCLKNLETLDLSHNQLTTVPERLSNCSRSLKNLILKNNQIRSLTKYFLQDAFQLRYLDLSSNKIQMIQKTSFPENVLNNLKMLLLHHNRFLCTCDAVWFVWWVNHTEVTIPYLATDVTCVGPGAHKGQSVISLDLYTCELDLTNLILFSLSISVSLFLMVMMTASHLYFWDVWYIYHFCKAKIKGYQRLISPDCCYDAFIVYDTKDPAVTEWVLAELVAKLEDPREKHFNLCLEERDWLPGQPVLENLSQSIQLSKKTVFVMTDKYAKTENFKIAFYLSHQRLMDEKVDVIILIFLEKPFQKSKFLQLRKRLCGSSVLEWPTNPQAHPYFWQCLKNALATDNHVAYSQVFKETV
In words: hTLR7 agonistic activity, HEK-Blue hTLR7 SEAP reporter gene assay. The conditions noted are these: for EC50: HEK-Blue hTLR7 cells, SEAP reporter, about 16 hours incubation, read-out: TLR7 EC50. Here is the method: To analyze the hTLR7 agonistic activity, HEK-Blue hTLR7 cells transfected with secreted embryonic alkaline phosphatase (SEAP) reporter were seeded at 3×10^4 cell/well. […] The SEAP reporter is designed specifically for measuring secreted placental AP (alkaline phosphatase) in conditioned cell culture medium from transfected cells. The HEK-Blue hTLR7 cells served to measure the bioactivity of TLR7 through SEAP upon NF-κB activation following TLR7 stimulation.
(§1) In the SEAP reporter gene assay as described above, water was used as a negative control. […] The dose-response curves were fit with four parameter logistic curves (SigmaPlot, version 9.0). The EC50-values of the test compounds and reference compounds were calculated.

Assay [2] deals with T2, hTLR8 (Homo sapiens, UniProt Q9NR97).
T2 construct: expressed in transfected cells; host or cells: HEK-Blue hTLR8 cells
T2 sequence (Q9NR97 27-1041): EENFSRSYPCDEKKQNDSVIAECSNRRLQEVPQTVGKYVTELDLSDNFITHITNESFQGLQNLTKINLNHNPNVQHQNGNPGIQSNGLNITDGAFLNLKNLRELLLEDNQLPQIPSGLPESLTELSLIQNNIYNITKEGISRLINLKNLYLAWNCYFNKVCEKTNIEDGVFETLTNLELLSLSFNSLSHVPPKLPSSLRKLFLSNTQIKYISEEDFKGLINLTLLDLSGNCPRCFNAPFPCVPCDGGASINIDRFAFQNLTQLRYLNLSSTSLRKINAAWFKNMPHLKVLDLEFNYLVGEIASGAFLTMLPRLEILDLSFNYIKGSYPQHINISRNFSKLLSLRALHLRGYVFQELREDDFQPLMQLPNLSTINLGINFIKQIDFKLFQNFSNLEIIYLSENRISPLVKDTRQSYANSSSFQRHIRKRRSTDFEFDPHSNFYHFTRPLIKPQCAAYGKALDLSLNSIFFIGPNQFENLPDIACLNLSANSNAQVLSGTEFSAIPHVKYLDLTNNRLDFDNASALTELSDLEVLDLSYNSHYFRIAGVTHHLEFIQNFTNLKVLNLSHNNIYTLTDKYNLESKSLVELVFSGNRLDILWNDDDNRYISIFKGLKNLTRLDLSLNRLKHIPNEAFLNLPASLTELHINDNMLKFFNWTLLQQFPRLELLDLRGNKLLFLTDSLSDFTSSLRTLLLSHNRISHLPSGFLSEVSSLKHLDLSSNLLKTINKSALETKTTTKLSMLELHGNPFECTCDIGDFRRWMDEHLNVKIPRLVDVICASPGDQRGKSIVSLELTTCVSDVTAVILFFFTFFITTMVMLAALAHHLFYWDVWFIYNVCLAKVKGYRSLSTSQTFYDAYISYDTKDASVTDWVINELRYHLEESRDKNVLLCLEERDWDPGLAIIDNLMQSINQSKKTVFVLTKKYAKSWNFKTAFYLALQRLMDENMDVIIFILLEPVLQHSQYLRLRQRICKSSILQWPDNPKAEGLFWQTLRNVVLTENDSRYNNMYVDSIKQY
In words: hTLR8 agonistic activity, HEK-Blue hTLR8 SEAP reporter gene assay. The following applies: for EC50: HEK-Blue hTLR8 cells, SEAP reporter, about 16 hours incubation, read-out: TLR8 EC50; for Ratio of TLR8 EC50 and TLR7 EC50: TLR8 EC50 / TLR7 EC50, HEK-Blue reporter cells. Here is the method: To analyze the hTLR8 agonistic activity, HEK-Blue hTLR8 cells transfected with SEAP reporter were seeded at 3×10^4 cell/well. […] The HEK-Blue hTLR8 cells served to measure the bioactivity of TLR8 through the SEAP upon NF-κB activation following TLR8 stimulation.
as §1

Assay [3] has as its system human PBMCs. In words: Ex vivo cytokine profile: IL-6 induction from human PBMCs. The conditions noted are these: human PBMCs stimulated 24 h, normalized to baseline; FIGS. 1A-C. On the procedure: Cryopreserved human PBMCs from 4 normal adult volunteers were purchased from EPBMC® (IMMUNOSPOT®). The PBMCs were thawed at 37° C. for 10 minutes and centrifuged at 300×g at room temperature for 5 minutes.
The test compounds and reference compounds were respectively dissolved in DMSO and subsequently 25-fold diluted with PBS to make stock solutions at a concentration of 0.1 mM. […] Approximately 1×10^3 PBMCs were added to each well of 96-well plates and stimulated with 0, 20 or 1000 nM of test compounds for 24 h at 37° C. in a 5% CO2 humidified incubator. The culture supernatant was stocked at −20° C. for analysis of TLR7- and TLR8-mediated cytokine induction. PROCARTAPLEX™ Immunoassay (Invitrogen) was performed to quantify human IL-6, IL-12p70, IP-10 in the culture supernatant according to the manufacturer's instructions. Briefly, the culture supernatant samples were thawed on ice and transferred to a microtiter plate. Magnetic bead-coupled antibodies specific to the target cytokines were added to the samples for analyte capturing. The immobilized target cytokine was specifically detected by biotin-conjugated antibodies and then labelled with streptavidin-Phycoerythrin (PE). The PE-labelled magnetic beads were detected and identified by LUMINEX™ 200™ analyzer. Data acquisition, processing and analysis was conducted by using XPONENT™ 3.1 software. The target cytokines were normalized to their baseline cytokine levels and presented as relative cytokines.

The subject of assay [4] is human PBMCs. In words: Ex vivo cytokine profile: IL-12p70 induction from human PBMCs. The conditions noted are these: human PBMCs stimulated 24 h, normalized to baseline; FIGS. 2A-C. Here is the method: (§2) Three test compounds (Compound Nos. 2, 9, 10) were used to evaluate the effect on cytokine induction.
(§3) Cryopreserved human PBMCs from 4 normal adult volunteers were purchased from EPBMC® (IMMUNOSPOT®). The PBMCs were thawed at 37° C. for 10 minutes and centrifuged at 300×g at room temperature for 5 minutes. The pelleted PBMCs were transferred to RPMI-1640 medium containing 10% FBS, 1% PSA and incubated at 37° C. with 5% CO2.
(§4) The test compounds and reference compounds were respectively dissolved in DMSO and subsequently 25-fold diluted with PBS to make stock solutions at a concentration of 0.1 mM. The preincubated PBMCs were harvested and resuspended in a fresh RPMI-1640 medium containing 10% FBS and 1% PSA. Approximately 1×10^3 PBMCs were added to each well of 96-well plates and stimulated with 0, 20 or 1000 nM of test compounds for 24 h at 37° C. in a 5% CO2 humidified incubator. The culture supernatant was stocked at −20° C. for analysis of TLR7- and TLR8-mediated cytokine induction. PROCARTAPLEX™ Immunoassay (Invitrogen) was performed to quantify human IL-6, IL-12p70, IP-10 in the culture supernatant according to the manufacturer's instructions. Briefly, the culture supernatant samples were thawed on ice and transferred to a microtiter plate. Magnetic bead-coupled antibodies specific to the target cytokines were added to the samples for analyte capturing. The immobilized target cytokine was specifically detected by biotin-conjugated antibodies and then labelled with streptavidin-Phycoerythrin (PE). The PE-labelled magnetic beads were detected and identified by LUMINEX™ 200™ analyzer. Data acquisition, processing and analysis was conducted by using XPONENT™ 3.1 software. The target cytokines were normalized to their baseline cytokine levels and presented as relative cytokines.

The test system of assay [5] is human PBMCs. In words: Ex vivo cytokine profile: IP-10 induction from human PBMCs. The conditions noted are these: human PBMCs stimulated 24 h, normalized to baseline; FIGS. 3A-C. Here is the method: as §2, §3, §4

Turning to `CCCc1nc2c(N)nc3ccccc3c2n1CC(C)(C)O` [Compound 1, 1-(4-amino-2-propyl-1H-imidazo[4,5-c]quinolin-1-yl)-2-methylpropan-2-ol], the half-maximal effective concentration (EC50) in assay [1] came out at 237 ± 7.4 nM; in assay [2] it was 5299 ± 14.4 nM. In addition, in assay [2], the “Ratio of TLR8 EC50 and TLR7 EC50” value is listed as 22.36.
For the compound `CCCN(CCC)C(=O)C1=Cc2ccc(-c3ccc(C(=O)N4CCCC4)cc3)cc2N=C(N)C1` [Ref. 3, VTX2337, reference compound], in assay [3], the “relative IL-6 induction” value is listed as “low IL-6 induction activity”.
In the case of `CC(C)(O)Cn1c(CCCC(F)(F)F)nc2c(N)nc3ccccc3c21` [Compound 9, 1-(4-amino-2-(4,4,4-trifluorobutyl)-1H-imidazo[4,5-c]quinolin-1-yl)-2-methylpropan-2-ol], the EC50 in assay [1] was 129 ± 10.9 nM; in assay [2] it was 965 ± 14.7 nM. Further, in assay [2], the “Ratio of TLR8 EC50 and TLR7 EC50” value is listed as 7.49. Also, in assay [3], the “relative IL-6 induction” value was “low IL-6 induction activity”. For the same compound, the “relative IL-12p70 induction” value in assay [4] was “high IL-12p70 induction activity”. Moreover, the “relative IP-10 induction” value in assay [5] was “high IP-10 induction activity”.
With `CC(C)(O)Cn1c(CCCCC(F)(F)F)nc2c(N)nc3ccccc3c21` [Compound 10, 1-(4-amino-2-(5,5,5-trifluoropentyl)-1H-imidazo[4,5-c]quinolin-1-yl)-2-methylpropan-2-ol], the EC50 in assay [1] was 543 ± 29.4 nM. Besides, in assay [2], the EC50 stood at 4746 ± 20.5 nM; the “Ratio of TLR8 EC50 and TLR7 EC50” value is given as 8.74. Further, in assay [3], the “relative IL-6 induction” value was “low IL-6 induction activity”. For the same compound, the “relative IL-12p70 induction” value in assay [4] was “high IL-12p70 induction activity”. Further, in assay [5], the “relative IP-10 induction” value is reported as “high IP-10 induction activity”.
For `CCCCCc1nc2c(N)nc3ccccc3c2n1CC(C)(C)O` [Compound 2, 1-(4-amino-2-pentyl-1H-imidazo[4,5-c]quinolin-1-yl)-2-methylpropan-2-ol], the “TLR7 and TLR8 dual agonistic activity (in words)” value in assay [1] (HEK-Blue hTLR7 and hTLR8 reporter cells, summary of Table 1) is “the most potent TLR7/8 dual agonist”. For the same compound, the half-maximal effective concentration (EC50) in assay [1] is 67.1 ± 8.3 nM. In addition, in assay [2], the 50% effective concentration (EC50) stood at 267 ± 13.5 nM; the “Ratio of TLR8 EC50 and TLR7 EC50” value was 3.98. Also, the “relative IL-6 induction” value in assay [3] is “low IL-6 induction activity”. Also, in assay [4], the “relative IL-12p70 induction” value is recorded as “high IL-12p70 induction activity”. Further, the “relative IP-10 induction” value in assay [5] is on record as “high IP-10 induction activity”.
